These results are taken from patent publication US10898469B2, “Imidazolylamide derivative” (Sumitomo Dainippon Pharma Co., Ltd., priority 2016, dated 2021).

What is called T/C is the ratio of treated to control.

Where two headings read alike, the source gives them in different places.

A short description of data set [1]: Solid state thermal stability. To be noted: 70° C., vessel left open; for solid state thermal stability (change of form): stored for 12 weeks. Format: physicochemical. The protocol:
The solid state thermal stability was measured for the compounds of Examples 237 and 238 according to the following method. The compounds of Examples 237 and 238 were put into an isothermal vessel set at 70° C., and the samples were stored for 12 weeks under the condition that the vessel was left open. Each elemental analysis result for each compound after 12 weeks is shown as follows.

Data set [2] in a line: Pharmacokinetic assay in tumor-bearing mice where HCT-116 cells were transplanted (Test Example 3). Format: in vivo. To be noted: female, BALB/cAnNCrlj-nu/nu, plasma, tumor-bearing nude mouse; for concentration at 1 h: read-out: Plasma concentrations after oral administration, 1 hour; for concentration at 2 h: read-out: Plasma concentrations after oral administration, 2 hours; for concentration at 6 h: read-out: Plasma concentrations after oral administration, 6 hours; for concentration at 24 h: read-out: Plasma concentrations after oral administration, 24 hours. As for the experimental part: A 7- to 12-week-old nude mouse (BALB/cAnNCrlj-nu/nu, female, CHARLES RIVER LABORATORIES JAPAN, INC.) received intradermal transplantation of human colorectal cancer-derived HCT-116 cells (ATCC) in an amount of 3×10^6 cells/mouse around the ventral part. […] Blood was collected 1, 2, 6, and 24 hours after administration, and centrifuged to afford plasma samples. Methanol was added to the plasma samples so as to be adjusted to 80% of the final concentration. The samples were centrifuged and filtered to be deproteinized. Then, the test compound was detected and quantitated with LC-MS/MS (API4000, AB SCIEX). In quantitation, a calibration curve was prepared with mouse plasma comprising a known amount of the compound and Bezafibrate was used for the internal standard.
The test in Test Example 3 was performed for the compounds of Examples.
The following table and FIGS. 1 to 5 show temporal changes of the plasma concentrations of compounds after oral administration.

For another data set, the system named is HCT-116 cells. In words: Drug efficacy assay in tumor-bearing mice where HCT-116 cells were transplanted (Test Example 4). Format: in vivo. The following applies: HCT-116 tumor-bearing nude mouse, oral, dosage 200 mg/kg, administration period 15 days. The text has this: The present compound can be used to evaluate the anti-tumor effect thereof according to the following assay. A 4- to 7-week-old nude mouse (BALB/cAnNCrj-nu/nu, female, CHARLES RIVER LABORATORIES JAPAN, INC.) received intradermal transplantation of human colorectal cancer-derived HCT-116 cells (ATCC) in an amount of 3×10^6 cells/mouse around the ventral portion. The engraftment of HCT-116 cells was observed 5 to 14 days after the transplantation, and then each compound suspended in a solvent such as 0.5% methylcellulose solution was orally administrated to the mouse in a dose of 1 to 200 mg/kg one to twice daily. The tumor volume was measured over time after the administration to evaluate the effect for reducing the tumor volume by the administration of each compound. The tumor volume can be calculated from the minor axis and major axis of the tumor measured with a digital caliper (Mitutoyo) according to the following equation: Tumor volume [mm^3]=[…] The tumor volume in the present-compound-administration group was compared with that of the control administration group treated with only a solvent such as 0.5% methylcellulose solution, and T/C value was calculated according the following equation to evaluate the anti-tumor effect of the present compound. […]

Where [3] appears, read: oral single dose 60 mg/kg, 0.5% methylcellulose.
[4] abbreviates: oral single dose 100 mg/kg, 20% Labrasol.

Regarding `COc1ccc(C(=O)Nc2cn(Cc3cc(F)c(F)c(F)c3)cn2)cc1OC` [Example 238, 3,4-Dimethoxy-N-[1-(3,4,5-trifluorobenzyl)-1H-imidazol-4-yl]benzamide tosilate], in data set [1] (12 weeks), the “Elemental analysis C (%) measured value after 12 weeks” value is reported as 55.51%, the “Elemental analysis F (%) measured value after 12 weeks” value is recorded as 10.15%, the “Elemental analysis H (%) measured value after 12 weeks” value came to 4.33% and the “Elemental analysis N (%) measured value after 12 weeks” value amounted to 7.48%. Further, in data set [1] (12 weeks), the “Elemental analysis S (%) measured value after 12 weeks” value is reported as 5.62%. The “solid state thermal stability (change of form)” value in data set [1] was “not changed”.
Take `COc1ccc(C(=O)Nc2cn(Cc3cc(F)c(F)c(F)c3)cn2)cc1OC.Cl` [Example 237, 3,4-dimethoxy-N-[1-(3,4,5-trifluorobenzyl)-1H-imidazol-4-yl]benzamide]: in data set [1] (12 weeks), the “Elemental analysis C (%) measured value after 12 weeks” value was 54.71%, the “Elemental analysis Cl (%) measured value after 12 weeks” value came to 4.00%, the “Elemental analysis F (%) measured value after 12 weeks” value was 13.74% and the “Elemental analysis H (%) measured value after 12 weeks” value was 4.31%. Further, the “Elemental analysis N (%) measured value after 12 weeks” value in data set [1] (12 weeks) is 10.28%. For the same compound, the “solid state thermal stability (change of form)” value in data set [1] is reported as “changed to 0.5 hydrochloride 0.5 hydrate”. In data set [2] (setting [3]), the concentration at 1 h came out at 13200 ng/mL, the concentration at 2 h worked out at 9760 ng/mL, the concentration at 6 h was 3390 ng/mL and the concentration at 24 h was 4 ng/mL.
With `COc1ccc(/C=C/C(=O)Nc2cn(Cc3cccc(C(F)(F)F)c3)cn2)cc1OCCO` [Example 128], in data set [2] (setting [4]), the concentration at 1 h came out at 4700 ng/mL, the concentration at 2 h came to 610 ng/mL, the concentration at 6 h came out at 644 ng/mL and the concentration at 24 h came out at 13 ng/mL.
Regarding `CC(=O)Nc1ccc(/C=C/C(=O)Nc2cn(Cc3cccc(OC(F)(F)F)c3)cn2)cc1` [Example 123], in data set [2] (setting [4]), the concentration at 1 h is 287 ng/mL, the concentration at 2 h was 837 ng/mL, the concentration at 6 h came to 79 ng/mL and the concentration at 24 h came to 62 ng/mL.
In the case of `N#Cc1ccc(/C=C/C(=O)Nc2cn(Cc3cccc(Cl)c3)cn2)cc1OCCO` [Example 129], in data set [2] (setting [4]), the concentration at 1 h was determined as 465 ng/mL, the concentration at 2 h worked out at 309 ng/mL and the concentration at 6 h turned out to be 271 ng/mL.
In the case of `CC(=O)Nc1ccc(/C=C/C(=O)Nc2cn(Cc3cccc(C(F)(F)F)c3)cn2)cc1.Cl` [Example 122, (E)-N-(1-(3-trifluoromethyl-benzyl)-1H-imidazol-4-yl)-3-(4-(acetylamino)phenyl)acrylamide], the T/C in the data set on HCT-116 cells is given as 51%. Also, in data set [2] (setting [4]), the concentration at 1 h amounted to 160 ng/mL, the concentration at 2 h is 642 ng/mL, the concentration at 6 h amounted to 467 ng/mL and the concentration at 24 h was 221 ng/mL.
